Experimental findings from US5268386A, “Certain 3,4-dihydro 4-oxospiro [2H-1 benzopyrans] useful for treating hyperuricemia” (Shionogi & Co., Ltd., priority 1989, dated 1993) are described below.

One assay deals with uric acid clearance. The assay is described as follows: Accelerated uric acid clearance in rats caused by administration of compound (I). In kind it is in vivo. The settings on record: dose 10 mg/kg intraperitoneal; male rats; mean of four measurements minus control value. The text has this: Accelerated uric acid clearance in rats caused by administration of compound (I).
Nine-week-old male rats were employed for the test. As a pre-treatment for measuring uric acid clearance and inulin clearance, each animal was anesthetized with pentobarbital sodium, and canulae were placed into the right femoral artery (for blood collection), left femoral vein (for drug infusion), and urinary bladder (for urine collection) of each animal. 60% Urethane was subcutaneously administered to each animal at a dose of 2 ml/kg body weight and then 1.7% potassium oxonate/1.5% inulin/4% mannitol/0.9% saline solution was intravenously administered. After that, 0.5% pottasium oxonate/4% mannitol/1.5% inulin/0.9% saline was infused to each animal at a flow rate of 0.05 ml per minute on a hot plate kept at 30° C. Thirty minutes later, 0.9% saline was intraperitonealy administered at 4 ml/kg body weight. After the equilibrium for another 30 minutes, arterial blood (0.2 ml each) samples were collected 6 times at every 20 minute interval and five 20-minute urine samples were collected. Immediately after the collection of every blood sample, the serum was separated therefrom, and the serum samples and the urine samples were stored in a refrigerator.
Immediately after the first collection of the urine sample, the test compound suspended in 1% gum arabic was intraperitoneally administered at 2 ml/kg body weight.
Uric acid both in the serum and in the urine was quantitatively analyzed by the method of Yonetani et al's. [Yonetani, Y.; Ishii, M.; Iwaki, K., Japanese J. Pharmacology 30, 829-840 (1980).] Inulin was also done substantially by the method of Vurek's and Pegram's [Vurek, G G., Pegram, S.E., Anal.Biochem., 16, 409-419 (1966}]. In order to analyze uric acid, 0.2 ml of diluted solution of deproteinized serum or urine was admixed with 2.5 ml of 0.4% dimedon/orthphosphoric acid solution and the resulting mixture was heated in a hot bath for 5 minutes. The mixture was then cooled in ice-cold water and the fluorescence was measured at 400 nm in the excitation wave length at 360 nm. Control experiments were carried out using an equivalent amount of positive control compounds, ([5-chloro-3-(2-methylphenyl)-4-oxo-4H-1-benzopyran-7-yl] oxy)acetic acid and benzbromarone.
a) Increment of urinary uric acid was calculated by subtracting the control value from the mean value of four measurements after the administration of test compound.
b) Increment of fractional excretion of uric acid [Uric acid clearance/inulin clearance (i.e., glomerular filtration rate)] was calculated by subtracting the control value from the mean value of four measurements after the administration of test compound.
For the molecule `O=C(O)COc1cc(Cl)c2c(c1Cl)OC1(CCCCC1)CC2=O` [Example 11], the “ΔUuaV (increment of urinary uric acid)” value came out at 0.022 mg/kg-min. For `COc1cc(OCC(=O)O)cc2c1C(=O)CC1(CCCCC1)O2` [Example 21, {(5-Methoxy-3,4-dihydro-4-oxospiro[2H-1-benzopyran-2,1'-cyclohexan]-7-yl)oxy}acetic acid], the “ΔUuaV (increment of urinary uric acid)” value is recorded as 0.046 mg/kg-min. Same read-out and setting: as for `CCOc1cc(OCC(=O)O)cc2c1C(=O)CC1(CCCCC1)O2` [Example 22], the figure is 0.029 mg/kg-min; as for `O=C(O)COc1cc(OCc2ccccc2)c2c(c1)OC1(CCCCC1)CC2=O` [Example 23], 0.051 mg/kg-min; as for `CC(C)Oc1cc(OCC(=O)O)cc2c1C(=O)CC1(CCCCC1)O2` [Example 24], 0.024 mg/kg-min. As to `C=CCOc1cc(OCC(=O)O)cc2c1C(=O)CC1(CCCCC1)O2` [Example 25], the “ΔUuaV (increment of urinary uric acid)” value is recorded as 0.043 mg/kg-min. Turning to `COc1cc(OCC(=O)O)cc2c1C(=O)C(C)C1(CCCCC1)O2` (stereo not shown) [Example 30], the “ΔUuaV (increment of urinary uric acid)” value is reported as 0.036 mg/kg-min.

For `COc1c(OCC(=O)O)ccc2c1OC1(CCCCC1)CC2=O` [Example 34], the “ΔUuaV (increment of urinary uric acid)” value turned out to be 0.040 mg/kg-min. As for `O=C(O)COc1cc(O)c2c(c1)SC1(CCCCC1)CC2=O` [Example 49, 2-{(5-Hydroxy-3,4-dihydro-4-oxospiro[2H-1-benzothiine-2,1'-cyclohexan]-7-yl)oxy}acetic acid], the “ΔUuaV (increment of urinary uric acid)” value is listed as 0.082 mg/kg-min. In the case of `COc1cc(OCC(=O)O)cc2c1C1(CC3(CCCCC3)O2)SCCS1` [Example 54, {(5-Methoxy-3,4-dihydrodispiro[2H-1-benzopyran-2,1'-cyclohexan-4,2"-[1,3]dithiolan]-7-yl)oxy}acetic acid], the “ΔUuaV (increment of urinary uric acid)” value worked out at 0.039 mg/kg-min.

Still in this assay, the particulars now being: dose 25 mg/kg intraperitoneal; male rats; mean of four measurements minus control value.
As to `COc1cc(OCC(=O)OCn2ncc3c(=O)[nH]cnc32)cc2c1C(=O)CC1(CCCCC1)O2` [Example 61], the “ΔUuaV (increment of urinary uric acid)” value is on record as -0.006 mg/kg-min.

Staying with this assay, now noted: dose 50 mg/kg intraperitoneal; male rats; mean of four measurements minus control value.
Regarding `COc1cc(OCC(=O)O)cc2c1C(=O)CC(C)(C)O2` [Example 33], the “ΔUuaV (increment of urinary uric acid)” value turned out to be 0.047 mg/kg-min.

In a further assay the target is T1, xanthine oxidase (milk xanthine oxidase) (Bos taurus, UniProt P80457).
T1 construct: purchased Boelinger Manheim; host or cells: milk
T1 sequence (P80457 whole entry): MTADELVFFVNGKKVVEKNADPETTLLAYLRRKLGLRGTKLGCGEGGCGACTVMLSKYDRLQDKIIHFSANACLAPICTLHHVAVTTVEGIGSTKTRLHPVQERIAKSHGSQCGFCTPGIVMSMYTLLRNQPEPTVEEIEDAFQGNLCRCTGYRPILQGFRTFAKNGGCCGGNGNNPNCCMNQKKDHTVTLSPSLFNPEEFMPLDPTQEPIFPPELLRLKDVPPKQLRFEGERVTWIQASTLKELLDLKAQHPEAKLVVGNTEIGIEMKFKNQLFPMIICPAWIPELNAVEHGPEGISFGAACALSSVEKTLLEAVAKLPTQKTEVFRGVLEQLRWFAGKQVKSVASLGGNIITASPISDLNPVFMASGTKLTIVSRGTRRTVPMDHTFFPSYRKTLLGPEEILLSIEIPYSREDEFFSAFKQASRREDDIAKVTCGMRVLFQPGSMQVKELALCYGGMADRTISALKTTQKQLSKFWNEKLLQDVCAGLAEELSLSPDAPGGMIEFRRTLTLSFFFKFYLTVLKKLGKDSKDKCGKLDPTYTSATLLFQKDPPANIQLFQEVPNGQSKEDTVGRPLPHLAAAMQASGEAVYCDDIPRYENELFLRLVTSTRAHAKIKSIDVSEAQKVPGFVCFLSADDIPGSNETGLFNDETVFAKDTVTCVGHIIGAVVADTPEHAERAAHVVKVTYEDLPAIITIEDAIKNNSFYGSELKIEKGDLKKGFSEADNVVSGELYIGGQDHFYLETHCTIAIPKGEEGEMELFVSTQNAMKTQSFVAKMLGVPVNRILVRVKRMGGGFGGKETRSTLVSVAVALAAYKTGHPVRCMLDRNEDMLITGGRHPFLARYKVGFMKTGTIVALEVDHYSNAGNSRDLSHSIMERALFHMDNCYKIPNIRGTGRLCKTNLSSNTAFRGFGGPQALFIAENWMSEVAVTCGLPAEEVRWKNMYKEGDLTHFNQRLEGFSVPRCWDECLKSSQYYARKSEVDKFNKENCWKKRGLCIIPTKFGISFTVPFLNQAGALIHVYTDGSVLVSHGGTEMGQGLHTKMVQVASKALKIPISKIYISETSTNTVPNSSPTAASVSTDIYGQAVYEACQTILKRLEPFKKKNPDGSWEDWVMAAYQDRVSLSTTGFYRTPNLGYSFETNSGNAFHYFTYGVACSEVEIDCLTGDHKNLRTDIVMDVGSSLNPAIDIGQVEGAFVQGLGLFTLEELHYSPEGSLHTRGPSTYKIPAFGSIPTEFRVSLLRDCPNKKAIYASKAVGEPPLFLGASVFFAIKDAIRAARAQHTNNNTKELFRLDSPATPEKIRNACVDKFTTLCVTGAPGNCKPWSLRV
The experiment in a line: Evaluation of xanthine oxidase inhibition activity. In kind it is biochemical. The settings on record: phosphate buffer pH=8, absorbance at 293 nm, 10 minutes, read-out: IC50 (50% inhibition rate).
Description: A mixture of 0.05M phosphate buffer (pH=8, 2 ml), 5.0×10^-4 M xanthine solution (0.5 ml), and an aqueous solution of a test compound (0.3 ml) was charged in a cell for the spectrophotometer. An aqueous solution of xanthine oxidase (200 times dilution, Boelinger Manheim, milk xanthine oxidase) (0.2 ml) was added to the mixture. The absorbance at 293 nm was measured before, and 10 minutes after, the addition of xanthine. The increase in the two measurements is attributable to the amount of synthesized uric acid. Control experiment was carried out using water instead of the test compound solution.
`COc1cc(OCC(=O)O)cc2c1C(=O)CC1(CCCCC1)O2` [Example 21, {(5-Methoxy-3,4-dihydro-4-oxospiro[2H-1-benzopyran-2,1'-cyclohexan]-7-yl)oxy}acetic acid]: the IC50 stood at 65 µM.

The term IC50 denotes the point on the concentration scale where inhibition reaches its midpoint.
